In EP1090017B1, “NOVEL COMPOUNDS DERIVED FROM ALPHA-D-XYLOSE, PREPARATION METHOD AND THERAPEUTIC USE” (FOURNIER INDUSTRIE ET SANTE, priority 1998, dated 1999):

Experiments:
[1] = tested on: cholestérol sérique; test: Serum cholesterol (area under curve) measured periodically during the 14-week apoE-deficient mouse trial; format: in vivo, souris; conditions: for AUC (aire sous courbe du cholestérol): whole 14 weeks of the trial
Excerpt: (§1) L'activité antiathéromateuse des composés selon l'invention a été mise en évidence sur des souris femelles, déficientes en apolipoprotéine E (homozygotes). Selon le protocole de ce test, le produit à évaluer est administré dans la nourriture (régime alimentaire standard) pendant 14 semaines. Après ce laps de temps, les souris sont euthanasiées et le coeur et la crosse aortique sont prélevés. Les surfaces lésées sont évaluées selon la méthode décrite dans Arteriosclerosis, 1990, 10, p. 316-323.
Durant les 14 semaines de l'essai décrit ci-dessus dans le but d'évaluer les propriétés antiathéromateuses des composés, on a mesuré périodiquement le taux de cholestérol sérique des souris traitées et des souris témoins, et le résultat est exprimé sous la forme aire sous courbe (AUC) du cholestérol pendant toute la durée de l'essai. Les résultats obtenus avec le composé de l'exemple 2 sont reportés dans le tableau II où AUC représente l'aire sous courbe (exprimée en g.jour.1^-1) et la variation (en pourcentage) est appréciée par rapport au groupe témoin. Tableau II

[2] = tested on: souris femelles, déficientes en apolipoprotéine E (homozygotes); test: Antiatheromatous activity in apolipoprotein E-deficient mice: lesion surface after 14 weeks of compound in the food; format: in vivo; conditions: 300 mg/kg in the food, versus untreated control mice
Excerpt: as §1
Le tableau I présente les résultats obtenus selon ce test pratiqué avec le composé de l'exemple 2 à différentes doses. Les résultats sont exprimés en pourcentage de réduction de la surface des plaques d'athérome, par rapport à un groupe de souris témoin non traitées. Tableau I

Row | SMILES | variation (%) de l'AUC du cholestérol ([1]; 10 mg/kg, versus control group) [%] | AUC (aire sous courbe du cholestérol) ([1]; 10 mg/kg) [g.jour.1^-1] | AUC (aire sous courbe du cholestérol) ([1]; 100 mg/kg) [g.jour.1^-1] | AUC (aire sous courbe du cholestérol) ([1]; 300 mg/kg) [g.jour.1^-1] | Réduction (%) de la surface des plaques d'athérome [2] [%]
1 | N#Cc1ccc(C(=O)c2ccc(S[C@H]3SC[C@@H](O)[C@H](O)[C@H]3O)cc2)cc1 [Exemple 2, [4-(4-cyanobenzoyl)phényl] 1,5-dithio-α-D-xylopyranoside] | 0 | 585 ± 15 | 507 ± 16 | 505 ± 20 | –
2 | N#Cc1ccc(C(=O)c2ccc(S[C@@H]3SC[C@@H](O)[C@H](O)[C@H]3O)cc2)cc1 [[4-(4-cyanobenzoyl)phényl] 1,5-dithio-β-D-xylopyranoside] | – | – | – | – | 30
